Results published in ChEMBL document CHEMBL2331210, “New 2-benzylsulfanyl-nicotinic acid based 1,3,4-oxadiazoles: their synthesis and biological evaluation” (2013).
Converted amounts (≈) assume the structure as drawn.

Key:
[1] = Antitumor activity against human HCC2998 cells assessed as cell growth at 0.1 uM; format: functional; details: HCC 2998, read-out: Activity
[2] = system: NCI-H460; test: Antitumor activity against human NCI-H460 cells assessed as cell growth at 0.1 uM; format: functional; details: read-out: Activity
[3] = system: NCI-H522; test: Antitumor activity against human NCI-H522 cells assessed as cell growth at 0.1 uM; format: functional; details: read-out: Activity
[4] = system: NCI-H23; test: Antitumor activity against human NCI-H23 cells assessed as cell growth at 0.1 uM; format: functional; details: read-out: Activity
[5] = system: NCI-H226; test: Antitumor activity against human NCI-H226 cells assessed as cell growth at 0.1 uM; format: functional; details: read-out: Activity
[6] = system: HOP-62; test: Antitumor activity against human HOP62 cells assessed as cell growth at 0.1 uM; format: functional; details: read-out: Activity
[7] = Antitumor activity against human EKVX cells assessed as cell growth at 0.1 uM; format: functional; details: read-out: Activity
[8] = system: A549; test: Antitumor activity against human A549/ATCC cells assessed as cell growth at 0.1 uM; format: functional; details: read-out: Activity
[9] = system: SR; test: Antitumor activity against human SR cells assessed as cell growth at 0.1 uM; format: functional; details: read-out: Activity
[10] = system: MOLT-4; test: Antitumor activity against human MOLT4 cells assessed as cell growth at 0.1 uM; format: functional; details: read-out: Activity
[11] = system: RPMI-8226; test: Antitumor activity against human RPMI8226 cells assessed as cell growth at 0.1 uM; format: functional; details: read-out: Activity
[12] = system: K562; test: Antitumor activity against human K562 cells assessed as cell growth at 0.1 uM; format: functional; details: read-out: Activity
[13] = system: HL-60; test: Antitumor activity against human HL60(TB) cells assessed as cell growth at 0.1 uM; format: functional; details: read-out: Activity
[14] = system: CCRF-CEM; test: Antitumor activity against human CCRF-CEM cells assessed as cell growth at 0.1 uM; format: functional; details: read-out: Activity
[15] = system: Mycobacterium tuberculosis; test: Antitubercular activity against Mycobacterium tuberculosis H37Rv assessed as growth inhibition after 12 to 28 days by L.J. agar MIC method; format: functional
[16] = system: Aspergillus clavatus; test: Antimicrobial activity against Aspergillus clavatus MTCC 1323 assessed as growth inhibition measured after overnight incubation by broth dilution method; format: functional
[17] = system: Aspergillus niger; test: Antimicrobial activity against Aspergillus niger MTCC 282 assessed as growth inhibition measured after overnight incubation by broth dilution method; format: functional
[18] = system: Candida albicans; test: Antimicrobial activity against Candida albicans MTCC 227 assessed as growth inhibition measured after overnight incubation by broth dilution method; format: functional
[19] = system: Pseudomonas aeruginosa; test: Antimicrobial activity against Pseudomonas aeruginosa MTCC 2488 assessed as growth inhibition measured after overnight incubation by broth dilution method; format: functional
[20] = system: Escherichia coli; test: Antimicrobial activity against Escherichia coli MTCC 443 assessed as growth inhibition measured after overnight incubation by broth dilution method; format: functional
[21] = system: Streptococcus pyogenes; test: Antimicrobial activity against Streptococcus pyogenes MTCC 442 assessed as growth inhibition measured after overnight incubation by broth dilution method; format: functional
[22] = system: Staphylococcus aureus; test: Antimicrobial activity against Staphylococcus aureus MTCC 96 assessed as growth inhibition measured after overnight incubation by broth dilution method; format: functional
[23] = system: MDA-MB-468; test: Antitumor activity against human MDA-MB-468 cells assessed as cell growth at 0.1 uM; format: functional; details: read-out: Activity
[24] = system: T47D; test: Antitumor activity against human T47D cells assessed as cell growth at 0.1 uM; format: functional; details: read-out: Activity
[25] = Antitumor activity against human Hs 578T cells assessed as cell growth at 0.1 uM; format: functional; details: read-out: Activity
[26] = system: BT-549; test: Antitumor activity against human BT549 cells assessed as cell growth at 0.1 uM; format: functional; details: read-out: Activity
[27] = system: MDA-MB-231; test: Antitumor activity against human MDA-MB-231/ATCC cells assessed as cell growth at 0.1 uM; format: functional; details: read-out: Activity
[28] = system: DU-145; test: Antitumor activity against human DU145 cells assessed as cell growth at 0.1 uM; format: functional; details: read-out: Activity
[29] = system: MCF7; test: Antitumor activity against human MCF7 cells assessed as cell growth at 0.1 uM; format: functional; details: read-out: Activity
[30] = system: PC-3; test: Antitumor activity against human PC3 cells assessed as cell growth at 0.1 uM; format: functional; details: read-out: Activity
[31] = system: SK-MEL-2; test: cells; details: Homo sapiens, SK-MEL-2, read-out: Activity
Description: Antitumor activity against human SK-MEL-2 cells assessed as cell growth at 0.1 uM

For `COc1cc(OC)nc(NC(=O)CSc2nnc(-c3cccnc3SCc3ccccc3)o2)n1`, the growth at 0.1 µM [1] was 109%, the growth at 0.1 µM [2] was 112% and the growth at 0.1 µM [3] was 88.2%. For the same compound, the growth at 0.1 µM [4] was 103%, the growth at 0.1 µM [5] was 101% and the growth at 0.1 µM [6] was 99.7%. For the same compound, the growth at 0.1 µM [7] was 105%, the growth at 0.1 µM [8] was 96.5% and the growth at 0.1 µM [9] was 96.2%. The growth at 0.1 µM [10] was 93.2%, the growth at 0.1 µM [11] was 101% and the growth at 0.1 µM [12] was 98.2%. The growth at 0.1 µM [13] was 97.3%, the growth at 0.1 µM [14] was 108% and the “growth inhibition (GI)” value [15] was 99%. The MIC ([15]; Mycobacterium tuberculosis, H37Rv) was 250 µg/mL (≈ 503 µM), the MIC [16] was 500 µg/mL (≈ 1010 µM) and the MIC [17] was 500 µg/mL (≈ 1010 µM). For the same compound, the MIC [18] was 500 µg/mL (≈ 1010 µM), the MIC [19] was 250 µg/mL (≈ 503 µM) and the MIC [20] was 100 µg/mL (≈ 201 µM). It also gave an MIC [21] of 125 µg/mL (≈ 252 µM), an MIC [22] of 250 µg/mL (≈ 503 µM) and a growth at 0.1 µM [23] of 98.2%. The growth at 0.1 µM [24] was 89.9%, the growth at 0.1 µM [25] was 107% and the growth at 0.1 µM [26] was 99.6%. For the same compound, the growth at 0.1 µM [27] was 108%, the growth at 0.1 µM [28] was 108% and the growth at 0.1 µM [29] was 95.5%. For the same compound, the growth at 0.1 µM [30] was 104% and the growth at 0.1 µM [31] was 102%.
